Measurements reported in patent publication US20240000811A1, “INOSITOL HEXAKISPHOSPHATE ANALOGUES FOR TREATMENT OF CALCIFICATION ASSOCIATED KIDNEY DISEASES” (INOSITEC AG, priority 2020, published 2024).

Experiments:
[1] = In-solution screening: CaP precipitation and aggregation in artificial renal tubular fluid (RTF); settings: 9 mM phosphate, 8 mM calcium, 4 h, RT
Method: An artificial renal tubular fluid (RTF) with a final composition of 0.05 mM oxalate, 0.005 mM sulphate, 408 mM sodium, 424 mM chloride, 0.26 mM potassium, 4 mM magnesium and 0.2 mM citrate in double distilled water was prepared according to a literature report (Fasano, J. M. et al., Kidney Int. 59, 169-178. DOI: 10.1046/j.1523-1755.2001.00477.x, 2001). The solution was filtered with a 0.45-μm syringe filter. Twenty mM Bis-Tris buffer was added to the reported protocol to ensure pH stability throughout experiments and pH was set to 7.2. The artificial RTF was stored at room temperature for up to four months. Stock solutions of 0.25 M phosphate and 1 M calcium were prepared in double distilled water and were stored separately at −20° C.
Twenty-x final concentration phosphate, 20× final concentration calcium and 10× final concentration compound dilutions were prepared in RTF. Assay mixture consisting of 80% RTF, 10% compound dilution, 5% phosphate dilution and 5% calcium dilution was prepared in Eppendorf tubes as follows. RTF (320 μL) was mixed with 20 μL phosphate dilution (final concentration of 9 mM), 40 μL compound dilution and 20 μL calcium dilution (final concentration of 8 mM). The assay mixture was vortexed after adding each component and 380 μL of the mixture were immediately added to 8-well glass bottom slides and incubated for 4 hat RT. CaP precipitation was assessed using a Leica DM 6000B microscope (Leica Microsystems, Wetzlar, Germany) in brightfield mode. For quantification 3 wells/condition with 3-4 images/well were imaged with a 40× objective. The total area covered with CaP deposits in percentage of the field of view and the mean size of CaP aggregates were determined.
In a first step, the influence of selected IP6 analogues (FIG. 3) on CaP precipitation and growth was assessed in vitro using artificial renal tubular fluid (RTF) (Table 1). In a previous study, the inventors investigated CaP protein particle formation in serum. However, an important difference to cardiovascular calcification lies in the extremely low protein content of the renal tubular fluid vs. the high abundance of proteins in blood, which can stabilize amorphous particles. Two cut-offs were chosen for assessing efficacy. First, complete inhibition was defined as a >90% reduction of detected CaP precipitates compared to the control sample without compound.

[2] = system: RPTEC/TERT 1 human proximal tubule cells; experiment: Imaging assay: CaP adhesion/deposition and cellular changes on RPTEC monolayers treated with 5/7 mM Ca/P; assay type: cell-based
Method: RPTEC/TERT 1 human proximal tubule cells (RPTEC) were cultured in T75 tissue culture flasks using ProxUp basal medium mixed with ProxUp supplements at 37° C. and 5% CO2 according to manufacturer's recommendations. Cells were used up to passage 30 and regularly tested for Mycoplasma infections. For experiments, RPTEC were cultured in 24-well plates at a seeding density of 150′000 cells/cm^2. Cell viability assessment and cell counting before seeding was performed using an automated cell counter (BioRad TC 20, Hercules, CA, USA).
For the comparison of selected IP6 analogues, ProxUp basal medium was prepared with the selected inhibitor and added to each well. Then, CaP precipitation was induced by direct addition of first, phosphate and second, calcium. Final concentrations of 7 mM phosphate and 5 mM calcium were used. Cells were incubated for 24 h at 37° C. and 5% CO2. Spiked medium was removed, and cells were washed twice with PBS before staining.
(§1) For staining, ProxUp basal medium was mixed with calcein (500 nM final concentration), EthD (6 μM final concentration), CellMask stain ([…]) and Hoechst 33342. Staining mixture was added to RPTEC and cells were incubated for 30 min in the dark at 37° C. and 5% CO2. Staining solution was removed, cells were washed with PBS once and ProxUp basal medium was added. Cells were immediately imaged after staining. Images were obtained by epifluorescence microscopy at 37° C., using a Leica CTR6000 microscope. For quantification 3 wells/condition were prepared and 3 images/well were taken. For preliminary adhesion experiments images were taken with a 10× objective, for the imaging assay 20× objective images were taken.
Multichannel images were saved as individual channel images in 8-bit tiff format. For analysis Hoechst channel images were thresholded using the triangle threshold. Touching nuclei of the binary image were further segmented using the watershed algorithm with the distance transform of the binary image as input and local maxima thereof as seeds.
For EthD channel images, high level of background noise was observed, potentially as a result of fluorescence of the CellMask stain bleeding through. […] A fixed minimum threshold was set at 60. Watershed segmentation similar to the Hoechst channel was performed to segment touching objects. For the calcein channel images adaptive thresholding by triangle thresholding achieved good detection of CaP deposits, which was validated by visual comparison to brightfield channel images. For compound experiments, an additional upper threshold was set to the minimum threshold of the pos.ctrl images for the respective experiment. Thereby an overly insensitive threshold in images with a high amount of CaP deposition was circumvented. The sum of foreground pixels of the binary image was used to calculate the total area of CaP deposits. The skimage label algorithm was used to label touching foreground regions.
To segment images to single cells the CellMask channel image was first binarized by adaptive thresholding, using a blocksize of 35, followed by median filtering. Binary erosion was performed to shrink the outlines. A version of watershed algorithm was used to segment the whole image into single cells. To this end, the distance transform of the binary erosion image was used as input image and seeds were set to the local maxima of the Hoechst channel image. While this protocol allowed for an approximation of single cell morphology, further improvements of both analytical and experimental staining procedure would be necessary to achieve more accurate results.
Additionally, texture features of calcein and CellMask channel images were extracted. Grey level co-occurrence matrices were calculated using one set offset of 5 pixel and an angle of 90°. Here, the use of larger offsets could improve the detection of changes in large-scale features, e.g. CaP clustering sites. […]

[3] = system: RPTEC/TERT 1 human proximal tubule cells; experiment: CaP-induced CaOx crystallization on RPTEC monolayers; assay type: cell-based; settings: 1.2 mM oxalate, 4 h
Method: For the assessment of CaP-induced CaOx crystallization, after 24 h of incubation, Ca/P spiked medium was removed, and cells were washed twice with PBS. Subsequently, medium containing 1.2 mM oxalate and compound was added to each well. After 4 h of incubation at 37° C. and 5% CO2 treatment was removed, and cells washed once with PBS before staining.
as §1

[4] = previous study (Kletzmayr et al. 2020); cited from earlier work
[5] = reported, Schantl et al. 2020; cited from earlier work
[6] = 7 mM phosphate, 5 mM calcium, 24 h

COCCOCCO[C@@H]1C(OP(=O)(O)O)[C@H](OCCOCCOC)[C@@H](OP(=O)(O)O)C(OP(=O)(O)O)[C@H]1OP(=O)(O)O (stereo partly shown) [(OEG2)2-IP4]
effect on CaP precipitation / crystallization (in words) [1]: did not further increase the inhibitory activity | concentration achieving complete inhibition of CaP adhesion [2, 6]: 50 µM | concentration down to which CaP adhesion was drastically reduced [2, 6]: 12.5 µM | single cell area compared to the positive ctrl ([2]; 6-50 μM compound, 5/7 mM Ca/P): dose-dependently reduced | single cell solidity compared to the positive ctrl ([2]; 6-50 μM compound, 5/7 mM Ca/P): increased | total cell count/field of view compared to the positive ctrl ([2]; 6-50 μM compound, 5/7 mM Ca/P): increased | number of dead cells compared to the positive ctrl ([2]; 6-50 μM compound, 5/7 mM Ca/P, EthD staining): dose-dependently reduced | image feature profile vs positive ctrl (+5/7 mM Ca/P) and negative ctrl ([2]; 6-50 μM compound, 24 h): dose-dependent reversal | total CaP area compared to the positive ctrl ([2]; 6 and 13 μM compound, 5/7 mM Ca/P, calcein staining): reduction | calcium oxalate dihydrate (COD) in CaP-induced CaOx crystallization ([3]; 100 μM compound): almost entirely abolished | CaOx crystal form in CaP-induced CaOx crystallization ([3]; after 24 h Ca/P, dose-dependent): revert CaOx crystallization from calcium oxalate monohydrate (COM), the predominant most stable form, to calcium oxalate dihydrate (COD) | efficacy on CaOx crystallization in solution [4]: limited efficacy | pharmacokinetic profile [5]: favorable
